The experiment has as its target T1, phosphatase ABI1 via the co-regulator RCAR11/PYR1 (Arabidopsis thaliana, UniProt O49686+P49597).
T1 sequence (O49686 1-191): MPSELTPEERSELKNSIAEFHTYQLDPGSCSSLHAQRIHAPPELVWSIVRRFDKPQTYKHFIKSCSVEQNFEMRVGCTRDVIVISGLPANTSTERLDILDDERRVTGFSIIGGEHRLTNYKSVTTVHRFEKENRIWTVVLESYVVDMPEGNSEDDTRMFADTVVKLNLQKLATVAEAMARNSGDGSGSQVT
T1 sequence (P49597 1-434): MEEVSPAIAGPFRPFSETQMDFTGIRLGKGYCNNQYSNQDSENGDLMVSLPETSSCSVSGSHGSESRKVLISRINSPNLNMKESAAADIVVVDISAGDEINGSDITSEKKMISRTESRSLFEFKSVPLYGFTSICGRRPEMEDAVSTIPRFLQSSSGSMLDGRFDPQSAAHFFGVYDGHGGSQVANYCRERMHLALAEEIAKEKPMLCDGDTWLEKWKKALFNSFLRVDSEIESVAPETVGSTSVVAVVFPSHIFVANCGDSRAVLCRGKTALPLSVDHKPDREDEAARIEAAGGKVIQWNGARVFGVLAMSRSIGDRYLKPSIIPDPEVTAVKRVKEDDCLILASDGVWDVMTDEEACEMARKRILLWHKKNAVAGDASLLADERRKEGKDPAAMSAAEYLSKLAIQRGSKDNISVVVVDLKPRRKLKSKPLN
Description: In vitro inhibition of the phosphatase ABI1 via the co-regulator RCAR11/PYR1, MUP dephosphorylation. The class given is biochemical. The following applies: in a solution of DMSO and water; fluorescence at 460 nm. The arrangement: dose or concentration left out as unconfirmed. From the text: Effects of the phytohormone abscisic acid (ABA) on the behavior of plants under abiotic stress and the mechanism of action of ABA are described in the literature (cf. Abrams et al., WO97/23441, Park et al. Science, 2009, 324, 1068; Grill et al. Science, 2009, 324, 1064; Tanokura et al. Biophysics, 2011, 7, 123; Schroeder et al. Plant J. 2010, 61, 290). Therefore, it is possible with the aid of a suitable in vitro test system to derive a correlation between the action of ABA and the stress response of a plant under abiotic stress. In the event of water deficiency (drought stress), plants form the phytohormone abscisic acid (ABA). This binds, along with a co-regulator (Regulatory Component of ABA-Receptor=RCAR according to Grill et al. Science, 2009, 324, 1064 or PYR/PYL according to Cutler et al. Science, 2009, 324, 1068), to a phosphatase (e.g. ABI1, a type 2C protein phosphatase, also abbreviated to PP2C) and inhibits its activity. As a result, a “downstream” kinase (e.g. SnRK2) is no longer dephosphorylated. This kinase, which is thus active, via phosphorylation of transcription factors (e.g. AREB/ABF, cf. Yoshida et al., 2010, 61, 672), switches on a genetic protection program to increase drought stress tolerance. The assay described hereinafter utilizes the inhibition of the phosphatase ABI1 via the co-regulator RCAR11/PYR1 aus Arabidopsis thaliana. For the determination of activity, the dephosphorylation of 4-methylumbelliferyl phosphate (MUP) was measured at 460 nm. The in vitro assay was conducted in Greiner 384-well PS microplates F-well, using two controls: a) 0.5% dimethyl sulfoxide (DMSO) and b) 5 μM abscisic acid (ABA). The assay described here was generally conducted with substance concentrations of the appropriate chemical test substances in a concentration range of 0.1 μM to 100 μM in a solution of DMSO and water. The substance solution thus obtained, if necessary, was stirred with esterase from porcine liver (EC 3.1.1.1) at room temperature for 3 h and centrifuged at 4000 rpm for 30 min. A total volume of 45 μl was introduced into each cavity of the microplate, having the following composition: • 1) 5 μl of substance solution, i.e. a) DMSO 5% or b) abscisic acid solution or c) the corresponding example compound of the general formula (I) dissolved in 5% DMSO. • 2) 20 μl of enzyme buffer mix, composed of a) 40% by vol. of enzyme buffer (10 mL contain equal proportions by volume of 500 mM Tris-HCl pH 8, 500 mM NaCl, 3.33 mM MnCl2, 40 mM dithiothreitol (DTT)), b) 4% by vol. of ABI1 dilution (protein stock solution was diluted so as to give, after addition, a final concentration in the assay of 0.15 μg ABI1/well), c) 4% by vol. of RCAR11 dilution (enzyme stock was diluted so as to give, on addition of the dilution to the enzyme buffer mix, a final concentration in the assay of 0.30 μg enzyme/well), d) 5% by vol. of Tween20 (1%), e) 47% by vol. H2O bi-dist. • 3) 20 μl of substrate mix, composed of a) 10% by vol. of 500 mM Tris-HCl pH8, b) 10% by vol. of 500 mM NaCl, c) 10% by vol. of 3.33 mM MnCl2, d) 5% by vol. of 25 mM MUP, 5% by vol. of Tween20 (1%), 60% by vol. of H2O bi-dist.
Enzyme buffer mix and substrate mix were made up 5 minutes prior to the addition and warmed to a temperature of 35° C. On completion of pipetting of all the solutions and on completion of mixing, the plate was incubated at 35° C. for 20 minutes. Finally, a relative fluorescence measurement was made at 35° C. with a BMG Labtech “POLARstar Optima” microplate reader using a 340/10 nm excitation filter and a 460 nm emission filter. The efficacy of the compounds of the general formula (I) is reported in the table which follows using abscisic acid […] as comparative substance (No. 37) according to the following classification: ++++ (inhibition≧90%), +++ (90%>inhibition≧70%), ++ (70%>inhibition≧50%), + (50%>inhibition≧30%). […]

Results on 38 compounds are retold here after patent US20170027172A1, “USE OF SUBSTITUTE OXO TETRAHYDROQUINOLINE SULFONAMIDES OR SALTS THEREOF FOR RAISING STRESS TOLERANCE OF PLANTS” (BAYER CROPSCIENCE AKTIENGESELLSCHAFT, priority 2014, published 2017).

Consider `N#Cc1ccc(CS(=O)(=O)Nc2ccc3c(c2)CCC(=O)N3CC2CC2(Cl)Cl)cc1` (centres unmarked) [A32-181], for which the ABI1 inhibition entry was “+++ (90%>inhibition≧70%)”.
Next, `Cc1ccc(S(=O)(=O)Nc2ccc3c(c2)C2(CCC2)CC(=O)N3CC2CC2)cc1` [J3-50, 4-Methyl-N-[1′-(cyclopropylmethyl)-2′-oxo-2′,3′-dihydro-1′H-spiro[cyclobutyl-1,4′-quinolin]-6′-yl]phenylsulfonamide]: “+ (50%>inhibition≧30%)”; `O=C1CCc2cc(NS(=O)(=O)Cc3cccc(Cl)c3)ccc2N1CC(F)F` [A1-166]: “++ (70%>inhibition≧50%)”.
Then `COC(=O)CCN1C(=O)CCc2cc(NS(=O)(=O)Cc3ccccc3Cl)ccc21` [A51-168], with “++++ (inhibition≧90%)”; and `O=C1CCc2cc(NS(=O)(=O)Cc3cccc(Cl)c3)ccc2N1CC(F)(F)F` [A2-166], with “+++ (90%>inhibition≧70%)”.
Then `O=C1CCc2cc(NS(=O)(=O)Cc3ccc(Cl)cc3)ccc2N1CCC(F)(F)F` [A7-165], with “++++ (inhibition≧90%)”.
On to `CCc1ccc(S(=O)(=O)Nc2ccc3c(c2)CCC(=O)N3CC2CC2)cc1` [A19-601], for which the ABI1 inhibition result was “+++ (90%>inhibition≧70%)”.
Regarding `CC(C#N)CN1C(=O)CCc2cc(NS(=O)(=O)Cc3ccc(Cl)cc3)ccc21` (centres unmarked) [A47-165], the ABI1 inhibition result is recorded as “++++ (inhibition≧90%)”.
Then `COC(=O)CCN1C(=O)CCc2cc(NS(=O)(=O)Cc3ccccc3F)ccc21` [A51-161], with “+++ (90%>inhibition≧70%)”.
Next, `COCCN1C(=O)CCc2cc(NS(=O)(=O)Cc3cccc(Cl)c3)ccc21` [A38-166]: “+++ (90%>inhibition≧70%)”.
With `COCN1C(=O)CCc2cc(NS(=O)(=O)Cc3ccc(Cl)cc3)ccc21` [A49-165], the ABI1 inhibition result is “++++ (inhibition≧90%)”.
Next, `N#CCCCN1C(=O)CCc2cc(NS(=O)(=O)Cc3ccc(C#N)cc3)ccc21` [A48-181]: “++++ (inhibition≧90%)”.
Take `CCOCCN1C(=O)CCc2cc(NS(=O)(=O)Cc3ccc(F)cc3)ccc21` [A39-158]: the ABI1 inhibition result is listed as “+ (50%>inhibition≧30%)”.
Then `O=C1CCc2cc(NS(=O)(=O)Cc3ccc([N+](=O)[O-])cc3)ccc2N1CC1CC1` [A19-175], with “++++ (inhibition≧90%)”.
On to `O=C1CCc2c(cc(F)c(NS(=O)(=O)Cc3ccc(F)cc3)c2F)N1CC1CC1` [A29-158], for which the ABI1 inhibition entry is “++ (70%>inhibition≧50%)”.
Next, `CC(C)(C)c1ccc(CS(=O)(=O)Nc2ccc3c(c2)CCC(=O)N3CC2CC2)cc1` [A19-332]: “++++ (inhibition≧90%)”; `CC(C)(C)c1ccc(CS(=O)(=O)Nc2ccc3c(c2)CCC(=O)N3CC2CCC2)cc1` [A21-332]: “++++ (inhibition≧90%)”; `O=C1CCc2cc(NS(=O)(=O)Cc3cccc(C(F)(F)F)c3)ccc2N1CC(F)(F)F` [A2-179]: “+++ (90%>inhibition≧70%)”.
Next, `O=C1CCc2cc(NS(=O)(=O)Cc3ccccc3[N+](=O)[O-])ccc2N1CC(F)(F)F` [A2-177]: “+++ (90%>inhibition≧70%)”; `COC(=O)CCN1C(=O)CCc2cc(NS(=O)(=O)Cc3cccc(C(F)(F)F)c3)ccc21` [A51-179]: “++ (70%>inhibition≧50%)”; `COC(=O)CCN1C(=O)CCc2cc(NS(=O)(=O)Cc3ccc(C)cc3)ccc21` [A51-152]: “++++ (inhibition≧90%)”.
Then `O=C1CCc2cc(NS(=O)(=O)Cc3ccc(Cl)cc3)ccc2N1CC1CC1(Cl)Cl` (racemic) [A32-165], with “++ (70%>inhibition≧50%)”; and `O=C1CCc2cc(NS(=O)(=O)Cc3ccccc3)ccc2N1CC(F)(F)F` [A2-151], with “++++ (inhibition≧90%)”; and `Cc1cccc(CS(=O)(=O)Nc2ccc3c(c2)CCC(=O)N3CC2CC2)c1` [A19-153, N-[1-(Cyclopropylmethyl)-2-oxo-1,2,3,4-tetrahydroquinolin-6-yl]-1-(3-methylphenyl)methanesulfonamide], with “+++ (90%>inhibition≧70%)”.
Turning to `COC(=O)CCN1C(=O)CCc2cc(NS(=O)(=O)Cc3ccccc3)ccc21` [A51-151], the ABI1 inhibition result is “+++ (90%>inhibition≧70%)”.
Next, `COC(=O)CN1C(=O)CCc2cc(NS(=O)(=O)Cc3ccccc3)ccc21` [A50-151]: “++ (70%>inhibition≧50%)”.
Turning to `Cc1ccc(CS(=O)(=O)Nc2ccc3c(c2)CCC(=O)N3CC(F)(F)C(F)(F)F)cc1` [A10-152], the ABI1 inhibition result was “++++ (inhibition≧90%)”.
Regarding `COC(=O)CCN1C(=O)CCc2cc(NS(=O)(=O)Cc3ccccc3[N+](=O)[O-])ccc21` [A51-177], the ABI1 inhibition entry is “++ (70%>inhibition≧50%)”.
Then `COC(=O)CN1C(=O)CCc2cc(NS(=O)(=O)Cc3cccc(C)c3)ccc21` [A50-153], with “++ (70%>inhibition≧50%)”.
Next, `O=C1CCc2cc(NS(=O)(=O)Cc3cccc([N+](=O)[O-])c3)ccc2N1CC(F)(F)F` [A2-176]: “+++ (90%>inhibition≧70%)”; `O=C1CCc2cc(NS(=O)(=O)Cc3ccc(C(F)(F)F)cc3)ccc2N1CC(F)F` [A1-178]: “++++ (inhibition≧90%)”.
Consider `N#Cc1ccc(CS(=O)(=O)Nc2ccc3c(c2)CCC(=O)N3CCC(F)(F)F)cc1` [A7-181], for which the ABI1 inhibition result is “++++ (inhibition≧90%)”.
Next, `O=C1CCc2cc(NS(=O)(=O)Cc3cccc(F)c3)ccc2N1CC1CCC1` [A21-159]: “++++ (inhibition≧90%)”.
Regarding `N#Cc1ccc(CS(=O)(=O)Nc2ccc3c(c2)CCC(=O)N3CC2CCCC2)cc1` [A22-181], the ABI1 inhibition entry is given as “+++ (90%>inhibition≧70%)”.
Then `O=C1CCc2cc(NS(=O)(=O)Cc3ccc(F)cc3)ccc2N1CC1CC1(Cl)Cl` (racemic) [A32-158], with “+ (50%>inhibition≧30%)”; and `O=C1CCc2cc(NS(=O)(=O)Cc3ccc(C(F)(F)F)cc3)ccc2N1CC(F)(F)F` [A2-178], with “++++ (inhibition≧90%)”.
Then `O=C1CCc2cc(NS(=O)(=O)Cc3ccc([N+](=O)[O-])cc3)ccc2N1CC(F)F` [A1-175], with “+++ (90%>inhibition≧70%)”.
Then `O=C1CCc2cc(NS(=O)(=O)Cc3ccc(Cl)cc3)ccc2N1CC1CCCC1` [A22-165], with “+++ (90%>inhibition≧70%)”.
